The values below are quoted from earlier work in patent US12090144B2, “Photocurable hydrogel loaded with VH298-modified exosome and method of preparation and use thereof” (Chinese PLA General Hospital, priority 2022, dated 2024).

The structures appear in SMILES notation.

The conditions of the data set: background statement.

As to `Cc1ncsc1-c1ccc(CNC(=O)[C@@H]2C[C@@H](O)CN2C(=O)[C@@H](NC(=O)C2(C#N)CC2)C(C)(C)C)cc1` [VH298], the water solubility entry is given as “poor water solubility”.
